Assays:
Assay in all cases: relative viability (nuclei count vs DMSO), 5 days (fraction); higher = more cells survive
[1] = compound: CC1=C(C(=NN1)C)CC2=C(C3=C(S2)N(C(=O)N(C3=O)C)CC(C)C)C(=O)N4C[C@@H](CO4)O + O=C(CCCCCCC(=O)Nc1ccccc1)NO [Vorinostat] (partner 1 µM)
How it was run: (§1)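 Values are medians from duplicate plates. Each reflects relative viability, defined as the nuclei count of treated wells over that of vehicle wells. Lung cancer cell lines in 1536-well plates were pin-tool dosed one day after seeding with one drug alone or with a fixed anchor-drug dose plus five library-drug doses (not always all listed) in √10 steps, then fixed, stained and imaged at 4× after 5 days.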

IDH-C35 + Luminespib = compound: Cc1ccccc1C(C(=O)NC1CCCCC1)N(C(=O)Cn1ccnc1C)c1cccc(F)c1 [IDH-C35] + CCNC(=O)c1noc(-c2cc(C(C)C)c(O)cc2O)c1-c1ccc(CN2CCOCC2)cc1 [Luminespib] (partner 0.01 µM)
How it was run: as §1

IDH-C35 + Tozasertib = compound: Cc1ccccc1C(C(=O)NC1CCCCC1)N(C(=O)Cn1ccnc1C)c1cccc(F)c1 [IDH-C35] + Cc1cc(Nc2cc(N3CCN(C)CC3)nc(Sc3ccc(NC(=O)C4CC4)cc3)n2)n[nH]1 [Tozasertib] (partner 0.1 µM)
How it was run: as §1

IDH-C35 + Olaparib = compound: Cc1ccccc1C(C(=O)NC1CCCCC1)N(C(=O)Cn1ccnc1C)c1cccc(F)c1 [IDH-C35] + O=C(c1cc(Cc2n[nH]c(=O)c3ccccc23)ccc1F)N1CCN(C(=O)C2CC2)CC1 [Olaparib] (partner 8 µM)
How it was run: as §1

| Cell Line | relative viability ([1]; first compound 0.0025 µM) | relative viability ([1]; first compound 0.007906 µM) | relative viability ([1]; first compound 0.025 µM) | relative viability ([1]; first compound 0.07906 µM) | relative viability ([1]; first compound 0.25 µM) | relative viability (IDH-C35 + Luminespib; first compound 0.08 µM) | relative viability (IDH-C35 + Luminespib; first compound 0.253 µM) | relative viability (IDH-C35 + Luminespib; first compound 0.8 µM) | relative viability (IDH-C35 + Luminespib; first compound 2.53 µM) | relative viability (IDH-C35 + Luminespib; first compound 8 µM) | relative viability (IDH-C35 + Tozasertib; first compound 0.08 µM) | relative viability (IDH-C35 + Tozasertib; first compound 0.253 µM) | relative viability (IDH-C35 + Tozasertib; first compound 0.8 µM) | relative viability (IDH-C35 + Tozasertib; first compound 2.53 µM) | relative viability (IDH-C35 + Tozasertib; first compound 8 µM) | relative viability (IDH-C35 + Olaparib; first compound 0.08 µM) | relative viability (IDH-C35 + Olaparib; first compound 0.253 µM) | relative viability (IDH-C35 + Olaparib; first compound 0.8 µM) | relative viability (IDH-C35 + Olaparib; first compound 2.53 µM) | relative viability (IDH-C35 + Olaparib; first compound 8 µM) |
| --- | --- | --- | --- | --- | --- | --- | --- | --- | --- | --- | --- | --- | --- | --- | --- | --- | --- | --- | --- | --- |
| NCI-H522 | 0.963 | 1.03 | 0.682 | 0.551 | 0.551 | 0.958 | 1 | 1.1 | 1.22 | 1 | 0.545 | 0.543 | 0.589 | 0.581 | 0.611 | 0.594 | 0.687 | 0.657 | 0.59 | 0.746 |
| HCC-15 | 1.04 | 0.829 | 0.839 | 0.875 | 0.81 | 0.246 | 0.251 | 0.178 | – | 0.314 | 0.493 | 0.463 | 0.342 | – | 0.323 | 0.712 | 0.733 | 0.724 | – | 0.667 |
| A-427 | 0.899 | 0.895 | 0.865 | 0.826 | 0.929 | 0.914 | 0.892 | 0.785 | 0.87 | 0.852 | 0.216 | 0.221 | 0.215 | 0.206 | 0.182 | 0.698 | 0.637 | 0.732 | 0.742 | 0.77 |
| NCI-H2228 | 0.559 | 0.811 | 0.681 | 0.649 | 0.9 | 0.213 | 0.152 | 0.111 | 0.184 | 0.155 | 0.319 | 0.221 | 0.302 | 0.246 | 0.203 | 0.601 | 0.781 | 0.61 | 0.71 | 0.516 |
| NCI-H1734 | 0.88 | 0.868 | 0.768 | 0.745 | 0.76 | 0.193 | 0.215 | 0.214 | 0.19 | 0.191 | 0.28 | 0.27 | 0.246 | 0.247 | 0.249 | 0.585 | 0.628 | 0.61 | 0.634 | 0.588 |
| PC-14 | 0.824 | 0.885 | 0.692 | 0.824 | 0.982 | 0.148 | 0.154 | 0.177 | 0.243 | 0.198 | 0.634 | 0.542 | 0.611 | 0.58 | 0.557 | 0.251 | 0.271 | 0.222 | 0.292 | 0.237 |
| NCI-H1915 | 0.573 | 0.541 | 0.488 | 0.51 | 0.588 | 0.787 | 0.715 | 0.755 | 0.815 | 0.747 | 0.407 | 0.42 | 0.438 | 0.429 | 0.396 | 0.267 | 0.269 | 0.245 | 0.274 | 0.256 |
| NCI-H1666 | 1.08 | 1.12 | 1.03 | 1.04 | 1.05 | 0.984 | 0.979 | 1.04 | 1.04 | 1 | 0.585 | 0.752 | 0.619 | 0.58 | 0.536 | 0.777 | 0.795 | 0.721 | 0.781 | 0.718 |
| HCC-366 | 0.438 | 0.365 | 0.348 | 0.399 | 0.447 | – | – | – | – | – | 0.109 | 0.128 | 0.179 | – | 0.0826 | 0.353 | 0.361 | 0.345 | 0.36 | 0.326 |
| SK-MES-1 | 1.19 | 1.23 | 1.1 | 1.05 | 1.16 | 0.701 | 0.939 | 0.855 | 0.861 | 0.749 | 0.927 | 0.86 | 0.88 | 0.863 | 0.761 | 0.737 | 0.728 | 0.609 | 0.693 | 0.631 |
| SW 1573 | 0.795 | 0.714 | 0.792 | 0.679 | 0.782 | 0.136 | 0.218 | 0.257 | 0.442 | 0.248 | 0.187 | 0.14 | 0.239 | 0.194 | 0.184 | 0.5 | 0.54 | 0.496 | 0.433 | 0.467 |
| NCI-H661 | 0.787 | 0.863 | 0.746 | 0.805 | 0.834 | 0.905 | 0.907 | 0.963 | 0.882 | 0.914 | 0.326 | 0.358 | 0.372 | 0.346 | 0.355 | 0.758 | 0.743 | 0.738 | 0.71 | 0.688 |
| PC-3 [JPC-3] | 0.853 | 0.898 | 0.741 | 0.972 | 0.797 | 0.737 | 0.596 | 0.728 | 0.771 | 0.692 | 0.803 | 0.898 | 0.861 | 0.852 | 0.927 | 1.15 | 1.11 | 1.2 | 1.07 | 1.06 |
| NCI-H1623 | – | – | – | – | – | 0.435 | 0.503 | 0.502 | 0.559 | 0.439 | 0.414 | 0.423 | 0.464 | 0.452 | 0.431 | – | – | – | – | – |
| Calu-6 | – | – | – | – | – | – | – | – | – | – | – | – | – | – | – | 0.57 | 0.563 | 0.609 | 0.558 | 0.571 |
| LC-2-ad | 0.696 | 0.658 | 0.718 | 0.705 | 0.729 | 1.05 | 1.04 | 0.962 | – | 0.939 | 0.472 | 0.435 | 0.503 | – | 0.428 | 0.728 | 0.707 | 0.715 | 0.729 | 0.702 |
| CAL-12T | 0.956 | 0.962 | 0.827 | 0.801 | 0.772 | 0.498 | 0.314 | 0.36 | 0.188 | 0.363 | 0.307 | 0.306 | 0.303 | 0.379 | 0.301 | 0.761 | 0.73 | 0.629 | 0.747 | 0.701 |
| RERF-LC-KJ | 0.738 | 0.814 | 0.66 | 0.696 | 0.767 | 1.21 | 1.34 | 1.22 | 1.17 | 1.19 | 0.396 | 0.503 | 0.489 | 0.544 | 0.442 | 0.853 | 0.896 | 0.963 | 0.985 | 0.869 |

From the supplement of paper PMC10307832
